# No end group written: not given here.
# Tests used:
# [1] = test system: patients with type II diabetes; assay: Treatment of patients with decompensated type II diabetes; type: in vivo, human; conditions: five patients, 1 mg every 12 hours intravenously for eight days
# Method: It is exemplified with ten patients who had diabetic decompensation and reached a state of severity, that let them to be treated in the ICU of the hospital “Luis Díaz Soto” in Havana. Five of these patients were treated with a pharmaceutical composition comprising the peptide identified as SEQ ID NO: 1, so that a peptide dose of 1 mg every 12 hours was administered intravenously for eight days. In addition, they received the standard therapy needed for these cases.
# [2] = test system: patients with ischemic heart disease; assay: Treatment of patients with ischemic heart disease and high blood pressure; type: in vivo, human; conditions: six patients, 1 mg every 12 hours intravenously for seven days
# Method: It is exemplified with the results of six patients. They presented ischemic heart disease, associated with high blood pressure, which produced a state of severity. They were treated in the Intermediate Care Unit (IMCU) of the “Luis Diaz Soto” hospital in Havana. These patients were treated with a pharmaceutical composition comprising the peptide identified as SEQ ID NO: 1, so that a peptide dose of 1 mg every 12 hours was administered intravenously for seven days. In addition, they received the standard therapy needed for these cases.
# patients with RA = conditions: cited from earlier work
sequence,measurement,setting,value
SIDLKDKYKNIGAKLVQLVANNTNEEA [SEQ ID NO: 1],"side effects (clinical and imaging evaluation, blood biochemistry, differential blood count)",[1],No side effects were observed
same,"side effects (clinical and imaging evaluation, blood biochemistry, differential blood count)",[2],No side effects were observed
same,safety,patients with RA,proved to be safe
